From article PMC8624133, “10th Trends in Medical Mycology Held on 8 to 11 October 2021, Aberdeen, Scotland, Organized by the European Confederation of Medical Mycology (ECMM)” (Journal of Fungi, 2021)
Converted amounts (≈) assume the structure as drawn. Read-outs that look alike come from different tables or passages of the source.

Tests used:
[1] = test system: nine strains of Candida spp.; assay: CLSI M27-A3 broth microdilution; type: cell-based; conditions: nine strains; for MIC: Candida, read-out: GM MIC
McLDM-F5-CPR = assay: microbe, parasite or virus in culture; type: cell-based, Saccharomyces cerevisiae AD2Δgal; conditions: Saccharomyces cerevisiae, read-out: mean MIC
Trichosporon isolates = assay: CLSI broth microdilution; type: cell-based, Trichosporon spp.; conditions: read-out: high MICs
[2] = test system: Parathyridaria percutanea; assay: In vitro antifungal susceptibility; type: cell-based
C. glabrata = type: cell-based, Candida glabrata
C. albicans [3] = type: cell-based, Candida albicans
[4] = test system: C. auris Isolate B and Isolate C; assay: microbe, parasite or virus in culture; type: cell-based, Candida auris; conditions: for reduction in MIC: Isolate C with ERG11 WT in place of K143R
Other species of Candida = type: cell-based, Candida spp.
McLDM-F5 = assay: microbe, parasite or virus in culture; type: cell-based, Saccharomyces cerevisiae AD2Δgal; conditions: Saccharomyces cerevisiae, read-out: mean MIC
[5] = test system: C. auris III.8 and TAC1/MRR1 deletion strains; type: cell-based, Candida auris
C. auris = assay: CLSI M27-A3 broth microdilution; type: cell-based, Candida auris; conditions: for MIC: Candidozyma auris, read-out: GM MIC
C. guilliermondii = assay: EUCAST E. Def 7.3.2 microdilution; type: cell-based, Candida guilliermondii
McLDM-F1-CPR = assay: microbe, parasite or virus in culture; type: cell-based, Saccharomyces cerevisiae AD2Δgal; conditions: Saccharomyces cerevisiae, read-out: mean MIC
F. verticillioides = assay: Etest susceptibility; type: cell-based, Fusarium verticillioides
[6] = test system: C. auris clinical strains; assay: organism not typed; type: cell-based, Candida auris
C. tropicalis = type: cell-based, Candida tropicalis
C. fermentati = assay: EUCAST E. Def 7.3.2 microdilution; type: cell-based, Candida fermentati; conditions: n = 2
C. albicans [7] = assay: Candidemia Netherlands, MIC distributions against EUCAST ECOFF; type: cell-based, Candida albicans
C. parapsilosis = type: cell-based, Candida parapsilosis
[8] = test system: azole-resistant A. fumigatus SS clinical strains; assay: EUCAST E.DEF 9.3.2; type: cell-based; conditions: Aspergillus fumigatus
[9] = test system: A. fumigatus veterinary isolates; assay: EUCAST microdilution of veterinary isolates; type: cell-based, Aspergillus fumigatus
Description: All have been confirmed as A. fumigatus by MALDI-TOF MS using the BCCM/IHEM database. The antifungal susceptibility was evaluated using the microdilution EUCAST method. Cyp51A gene sequencing has been performed on all resistant isolates.

[10] = test system: Exophiala phaeomuriformis; assay: MIC, CLSI M27-A3; type: cell-based; conditions: read-out: MIC values
Method in brief: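 Isolate recovered from aviation kerosene by 0.22 μm membrane filtration, grown on potato dextrose agar at 30 °C for seven days and identified by ITS sequencing. Susceptibility to clinical antifungals tested per CLSI M27-A3.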

A. niger complex = assay: EUCAST E.Def 9.3.2 susceptibility, CPA isolates; type: cell-based, Aspergillus niger complex; conditions: n = 7, ECOFFs
[11] = test system: A. fumigatus clinical isolates; assay: Susceptibility of clinical isolates from CF patients; conditions: all 10 clinical isolates
[12] = Meyerozyma guilliermondii, n = 62

With OC(Cn1cncn1)(Cn1cncn1)c1ccc(F)cc1F [fluconazole] the MIC [1] was 4.66 µg/mL (≈ 15.2 µM), the MIC Range [1] was 0.5 to 32 µg/mL and the MIC (McLDM-F5-CPR) was 128 µg/mL (≈ 418 µM). The MIC (Trichosporon isolates) was 8 µg/mL (≈ 26.1 µM), the “in vitro susceptibility category” value [2] was “resistance” and the “I (intermediate) isolates, n (%)” value (C. glabrata) was 3 (4.2%). For the same compound, the “R (resistant) isolates, n (%)” value (C. glabrata) was 12 (16.9%), the “S (sensitive) isolates, n (%)” value (C. glabrata) was 56 (78.9%) and the “I (intermediate) isolates, n (%)” value (C. albicans [3]) was 0 (0%). The “R (resistant) isolates, n (%)” value (C. albicans [3]) was 3 (1.5%), the “S (sensitive) isolates, n (%)” value (C. albicans [3]) was 199 (98.5%) and the “decrease in MIC” value [4] was 4 fold. For the same compound, the MIC ([4]; Candidozyma auris, Isolate B (ERG11 Y132F, TAC1B A583S)) was 128 µg/mL (≈ 418 µM), the “reduction in MIC” value [4] was 8 fold and the “I (intermediate) isolates, n (%)” value (Other species of Candida) was 0 (0%). The “R (resistant) isolates, n (%)” value (Other species of Candida) was 0 (0%), the “S (sensitive) isolates, n (%)” value (Other species of Candida) was 25 (100%) and the MIC (McLDM-F5) was 42.7 µg/mL (≈ 139 µM). It also gave an MIC decrease ([5]; III.8 mrr1 strain vs parental) of 2 fold, an MIC decrease ([5]; III.8 tac1a/tac1b strain vs parental) of 2 fold and an MIC ([5]; III.8 tac1a/tac1b/mrr1 strain) of 128 µg/mL (≈ 418 µM). The MIC decrease ([5]; III.8 tac1a/tac1b/mrr1 strain vs parental) was 4 fold, the MIC ([5]; parental III.8 isolate) was 512 µg/mL (≈ 1670 µM) and the MIC Range (C. auris) was 1 to 32 µg/mL. The MIC (C. auris) was 5.26 µg/mL (≈ 17.2 µM), the “MIC of non wild-type isolates” value (C. guilliermondii) was 64 µg/mL and the MIC50 (C. guilliermondii; [12]) was 8 µg/mL (≈ 26.1 µM). It also gave an MIC90 (C. guilliermondii; [12]) of 16 µg/mL (≈ 52.2 µM), an MIC (C. guilliermondii; Meyerozyma guilliermondii, read-out: MIC of non wild-type isolates) of 32 µg/mL and a GM (C. guilliermondii; n = 62) of 7.655 µg/mL. For the same compound, the “MIC Range” value (C. guilliermondii; n = 62) was 0.125 to 64 µg/mL, the MIC (McLDM-F1-CPR) was 14.7 µg/mL (≈ 47.9 µM) and the “minimum inhibitory concentration (MIC), in words” value (F. verticillioides) was “high values”. For the same compound, the Resistance ([6]; CDC tentative breakpoints) was 100%, the “I (intermediate) isolates, n (%)” value (C. tropicalis) was 0 (0%) and the “R (resistant) isolates, n (%)” value (C. tropicalis) was 0 (0%). The “S (sensitive) isolates, n (%)” value (C. tropicalis) was 57 (100%), the GM (C. fermentati) was 2 µg/mL and the “MIC Range” value (C. fermentati) was 2 µg/mL (≈ 6.53 µM). The “isolates within the wildtype distribution range” value (C. albicans [7]) was 96.8%, the “I (intermediate) isolates, n (%)” value (C. parapsilosis) was 0 (0%) and the “R (resistant) isolates, n (%)” value (C. parapsilosis) was 2 (1.2%). The “S (sensitive) isolates, n (%)” value (C. parapsilosis) was 171 (98.8%).

In the case of CCC(C)n1ncn(-c2ccc(N3CCN(c4ccc(OCC5COC(Cn6cncn6)(c6ccc(Cl)cc6Cl)O5)cc4)CC3)cc2)c1=O (stereo not shown) [itraconazole], the MIC [1] is reported as 0.11 µg/mL (≈ 0.156 µM), the “in vitro susceptibility category” value [2] is reported as “resistance” and the “change of MIC” value [4] is reported as “largely unchanged”. For the same compound, the “reduction in MIC” value [4] was “unchanged”, the MIC ([8]; strain from pleural fluid of an ICU patient, no mutations in cyp51A) was greater than 8 µg/mL and the MIC ([8]; two strains from a cystic fibrosis patient, TR34/L98H) was greater than 8 µg/mL. The MIC Range (C. auris) was 0.125 to 1 µg/mL, the MIC (C. auris) was 0.12 µg/mL (≈ 0.17 µM) and the “minimum inhibitory concentration (MIC), in words” value (F. verticillioides) was “high values”. The “isolates with values equal to the clinical breakpoint” value [9] was 33%, the resistance of isolates [9] was “No resistance” and the MIC ([6]; range, 78 strains from patients with COVID-19) was 0.12 to 16 µg/mL (≈ 0.17 to 22.7 µM). The MIC [10] was 0.25 µg/mL (≈ 0.354 µM), the Non-wild type isolates (A. niger complex) was 29% and the susceptibility [11] was “susceptible”.
